Reference: patent US7618978B2, “Amides as BACE inhibitors” (Eli Lilly and Company, priority 2004, dated 2009)
Counter-ions that a name gives are not always drawn.

Key:
human BACE1(1-460):Fc = target: T1, human BACE1(1-460):Fc (Homo sapiens, UniProt P56817); test: BACE1 mcaFRET Assay; type: biochemical; conditions: FRET substrate 15 micromolar, pH 4.6, 16 to 24 hours at room temperature
T1 construct: made in house; host or cells: HEK293 cells, transient transfection, conditioned medium
Description: (§1) For in vitro enzymatic and cellular assays, test compounds are prepared in DMSO to make up a 10 millimolar stock solution. The stock solution is serially diluted (in a 1:3, 1:2.5, 1:2, or 1:1 dilution series) in DMSO to obtain a final compound concentration of 10 millimolar to 1 micromolar at the first highest concentration of a ten-point dilution curve in a 96-well round-bottom plate right before conducting the in vitro enzymatic and whole assays.
Serial dilutions of test compounds are prepared as described above. Two microliter of each dilution is added to each well on row A to H of a corresponding low protein binding black plate to which 50 microliter of 50 millimolar ammonium acetate, pH 4.6, 1 mM Triton X-100, 1 mg/ml Bovine Serum Albumin, and 15 micromolar of FRET substrate (sequence: (MCA)-S-E-V-N-L-D-A-E-F-R-K(Dnp)-R-R-R-R-NH2) for BACE1 activity are pre-added. The content is mixed well on a plate shaker for 10 min. Fifty microliter of two hundred picomolar human BACE1(1-460):Fc (See: Vasser, et al., Science, 286, 735-741 (1999)) in the same reaction buffer described above is added to the plate containing substrate and test compounds to initiate the reaction. The relative fluorescence unit (RFU) of the mixture at time 0 is recorded at excitation wavelength 330 nm and emission wavelength 400 nm, after brief mixing on a plate shaker. The reaction plate is covered with aluminum foil and kept in a dark humidified oven at room temperature for 16 to 24 hours. The RFU at the end of incubation is recorded with the same excitation and emission setting. The difference of the RFU at time 0 and the end of incubation represents the activity of BACE1 under the compound-treatment. The 10-point inhibition curve was plotted and fitted with the four-parameter logistic equation to obtain the EC50 and IC50 values. (See: Sinha, et al., Nature, 402, 537-540 (2000)). […] Data for selected compounds of the invention tested in this assay are contained in the following table.
Both human (accession number: AF190725) and murine (accession number: NM_011792) BACE1 were cloned from total brain cDNA by […]. The nucleotide sequences corresponding to amino acid sequences #1 to 460 were inserted into the cDNA encoding human IgG1 (Fc) polypeptide (Vassar et al. 1999). This fusion protein of BACE1(1-460) and human Fc, named huBACE1:Fc, was constructed into the pJB02 vector. Human BACE1(1-460):Fc (huBACE1:Fc) and murine BACE1(1-460):Fc (muBACE1:Fc) were transiently expressed in HEK293 cells. 250 μg cDNA of each construct was mixed with Fugene 6 and added to 1 liter HEK293 cells. Four days after the transfection, conditioned media were harvested for purification. Purification of huBACE1:Fc and muBACE1:Fc.
Conditioned media of […] cell transiently transfected with huBACE1:Fc or muBACE1:Fc cDNA were collected. Cell debris was removed by filtering the conditioned media through 0.22 μm sterile filter. 5 ml Protein A-agarose (bed volume) was added to 4 liter conditioned media. This mixture was gently stirred overnight at […]. The Protein A-agarose resin was collected and packed into a low-pressure chromatography column. The column was washed with 20× bed volumes of PBS at flow rate 20 ml per hour. Bound huBACE1:Fc or muBACE1:Fc protein was eluted with 50 mM acetic acid, pH 3.6, at flow rate 20 ml per hour. […] The purity of final product was assessed by electrophoresis in 4-20% Tris-Glycine SDS-PAGE. […]

beta-secretase activity = target: T2, beta-secretase activity (Homo sapiens, UniProt P56817); test: Whole Cell Assay for Measuring the Inhibition of Beta-Secretase Activity; type: cell-based; conditions: HEK293/APP751sw or HEK293/APP751wt cells, 4 to 6 hours at 37C, Abeta, sAPPbeta-lowering effect by sandwich ELISA
T2 construct: endogenous in cells; host or cells: HEK293p (ATCC CRL-1573) stably expressing human APP751sw or APP751wt
T2 sequence (P56817 46-501): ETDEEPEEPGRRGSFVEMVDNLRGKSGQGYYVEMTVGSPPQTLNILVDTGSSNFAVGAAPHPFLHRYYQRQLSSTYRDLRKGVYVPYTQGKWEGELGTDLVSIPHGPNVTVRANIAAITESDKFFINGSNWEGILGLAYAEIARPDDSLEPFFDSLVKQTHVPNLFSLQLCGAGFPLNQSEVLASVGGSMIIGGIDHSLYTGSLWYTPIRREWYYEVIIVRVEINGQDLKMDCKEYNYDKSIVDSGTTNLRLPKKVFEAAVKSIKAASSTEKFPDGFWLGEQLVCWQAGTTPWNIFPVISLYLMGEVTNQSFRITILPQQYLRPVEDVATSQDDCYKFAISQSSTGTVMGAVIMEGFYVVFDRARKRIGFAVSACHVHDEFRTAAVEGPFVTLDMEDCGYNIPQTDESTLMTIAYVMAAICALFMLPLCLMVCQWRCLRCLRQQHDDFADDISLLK
Description: as §1
The routine whole cell assay for the measurement of inhibition of beta-secretase activity utilizes the human embryonic kidney cell line HEK293p (ATCC Accession No. CRL-1573) stably expressing a human APP751 cDNA containing the naturally occurring double mutation […] to Asn651Leu652, commonly called the Swedish mutation (noted HEK293/APP751sw) and shown to overproduce Abeta (Citron et al., 1992, Nature 360:672-674). Human embryonic kidney HEK293p cells stably expressing wild-type human APP751 cDNA (noted HEK293/APP751wt) are also used to assess the inhibition of beta-secretase activity. In vitro Aβ reduction assays have been described in the literature (See: Dovey, et al., Journal of Neurochemistry, 76, 173-181 (2001); Seubert, et al., Nature, 361, 260 (1993); and Johnson-Wood, et al., Proc. Natl. Acad. Sci. USA, 94, 1550-1555 (1997))
Cells (HEK293/APP751sw or HEK293/APP751wt, at 3×10^4 cells/well, containing 200 microliters culture media, DMEM containing 10% FBS) are incubated at 37C for 4 to 6 hours in the presence/absence of inhibitors (diluted in DMSO) at the desired concentration. At the end of the incubation, conditioned media are analyzed for beta-secretase activity, for example, by analysis of cleavage fragments, Abeta peptide and sAPPbeta. Abeta peptides are measured by a sandwich ELISA, using monoclonal 266 as a capture antibody and biotinylated 3D6 as reporting antibody. The sAPPbeta fragments are analyzed by a sandwich ELISA, using monoclonal 8E5 antibody as a capture antibody and rabbit polyclonal 192sw or 192wt as a reporting antibody. Note that sAPPbeta is the cleavage product of full length APP by BACE 1. The concentration of sAPPbeta released in the conditioned media following the compound treatment corresponds to the activity of BACE1 under such conditions. The 10-point inhibition curve was plotted and fitted with the four-parameter logistic equation to obtain the EC50 and IC50 values for the Abeta, sAPPbeta-lowering effect. Data for selected compounds of the invention tested in this assay are contained in the following table.

T1 sequence (P56817 22-460): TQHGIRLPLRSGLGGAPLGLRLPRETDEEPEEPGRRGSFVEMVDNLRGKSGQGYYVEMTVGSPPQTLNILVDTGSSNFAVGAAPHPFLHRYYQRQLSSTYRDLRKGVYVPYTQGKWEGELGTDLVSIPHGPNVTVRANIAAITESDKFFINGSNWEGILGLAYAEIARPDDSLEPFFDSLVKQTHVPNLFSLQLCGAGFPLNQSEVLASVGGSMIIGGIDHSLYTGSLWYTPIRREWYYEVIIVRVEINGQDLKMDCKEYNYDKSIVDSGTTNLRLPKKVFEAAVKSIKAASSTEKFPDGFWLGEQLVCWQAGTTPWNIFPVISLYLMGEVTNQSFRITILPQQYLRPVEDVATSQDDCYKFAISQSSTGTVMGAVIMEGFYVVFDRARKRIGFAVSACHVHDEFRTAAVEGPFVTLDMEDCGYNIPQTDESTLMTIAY

With `CCC(C)Nc1cc(C(=O)NC(Cc2ccccc2)C(O)C2NCCN(C)C2=O)cc(N(C)S(C)(=O)=O)n1` [Example 3, N-[1-(S)-Benzyl-2-hydroxy-2-(4-methyl-3-oxopiperazin-2-yl)-ethyl]-2-(S)-sec-butylamino-6-(methylsulfonyl-methylamino)-isonicotinamide hydrochloride] the IC50 (human BACE1(1-460):Fc) was 0.001 µM and the IC50 (beta-secretase activity) was 0.041 µM.

`CCC(C)Nc1cc(C(=O)N[C@@H](Cc2ccccc2)[C@@H](O)[C@H]2CN(C(C)=O)CCN2)cc(N(C)S(C)(=O)=O)n1` (stereo partly drawn) [Example 7, N-[(1S,2R)-2-(R)-(4-Acetylpiperazin-2-yl)-1-benzyl-2-hydroxyethyl]-2-sec-butylamino-6-(methanesulfonyl-methylamino)-isonicotinamide hydrochloride] gave an IC50 (human BACE1(1-460):Fc) of 0.003 µM and an IC50 (beta-secretase activity) of 0.045 µM.

Compound `CC(=O)NC(Cc1cc(F)cc(F)c1)C(O)C1CCC(OCc2ccccc2)CN1` [Example 19, N-{(1S,2R)-2-[(5R,2R)-5-Benzyloxy-2-piperidin-2-yl]-1-(3,5-difluoro-benzyl)-2-hydroxy-ethyl}-acetamide hydrochloride] has an IC50 (human BACE1(1-460):Fc) of 13.1 µM and an IC50 (beta-secretase activity) of 17.1 µM.

Work on `CC(=O)N[C@@H](Cc1cc(F)cc(F)c1)[C@H](O)[C@H]1CC[C@@H](OCCC(C)C)CN1` [Example 55, N-(1S, 2R)-{1-(3,5-Difluoro-benzyl)-2-hydroxy-2-[(5R,2R)-5-(3-methyl-butoxy)-piperidin-2-yl]-ethyl}-acetamide hydrochloride] yielded an IC50 (human BACE1(1-460):Fc) of 6.9 µM and an IC50 (beta-secretase activity) of 6.1 µM.

Compound `CC(=O)N[C@@H](Cc1cc(F)cc(F)c1)[C@H](O)[C@H]1CC[C@@H](OCC(C)C)CN1` [Example 58, N-(1S,2R)-{1-(3,5-Difluoro-benzyl)-2-hydroxy-2-[(5R,2R)-5-isobutoxy-piperidin-2-yl]-ethyl}-acetamide hydrochloride] has an IC50 (human BACE1(1-460):Fc) of 6.8 µM.
